According to patent publication US12123048B2, “Fluorinated 4′-alkylumbelliferyl a-D-glucopyranosides, biological sterilization indicators including the same and methods of using the same” (3M INNOVATIVE PROPERTIES COMPANY, priority 2018, dated 2024):

Assay: Measurement of enzyme substrate degradation (100° C. for 15 minutes) by fluorescence
Assay type: physicochemical
Conditions: no spores, read at 60° C.
Method: Luria-Bertani (LB) broth was prepared by dissolving tryptone (10 g/L), yeast extract (5 g/L), and NaCl (5 g/L) in deionized water. In the examples, 6′-fluoro-4′-methylumbelliferyl α-D-glucopyranoside (0.3 mg/mL) or 5′-fluoro-4′-methylumbelliferyl α-D-glucopyranoside (0.3 mg/mL) was added to the broth. In the comparative examples, 4′-methylumbelliferyl α-D-glucopyranoside (MUG) (0.3 mg/mL) or 6′,8′-Difluoro-4′-methylumbelliferyl α-D-glucopyranoside (0.3 mg/mL) was added to the broth. The pH of the broth was adjusted to either pH 6, pH 7, pH 8, or pH 9 using 0.1 N hydrochloric acid or 1N sodium hydroxide solutions. The broth was passed through a 0.22 micron filter prior to use.
(§1) An 800-microliter sample of LB broth (pH 6) containing 6′-fluoro-4′-methylumbelliferyl α-D-glucopyranoside (0.3 mg/mL) (enzyme substrate of Example 1) was added to a 1.5 mL microcentrifuge tube and the capped tube was placed in a heating block at 100° C. for 15 minutes. A metal block was placed on top of the tube to keep the cap sealed during heating. The sample was cooled to ambient temperature and then added to two wells (100 microliters per well) of a black 96-well microtiter plate with optically clear, flat bottom wells (NUNC #165301, Thermo Fisher Scientific). The top of the plate was covered with an optically clear sealing film (product #4311971, Applied Biosystems Corporation). The plate was warmed at 60° C. and shaken in a linear direction. Fluorescence readings (360 nm excitation/450 nm emission at 50% gain) were taken from the bottom of the plate. A reading was taken at an initial time point of 10 seconds and then at +1 minute intervals thereafter. A Synergy Neo2 fluorescence plate reader (BioTek Company) was used. In Table 5, the mean fluorescence values detected (RFU) at times of 10 seconds, +5 minutes, +10 minutes, and +30 minutes are reported.
as §1, with “7)” for “6)”, “6,” for “5,”
as §1, with “8)” for “6)”, “A Synergy Neo2 fluorescence plate reader (BioTek Company) was used. In Table 5, the mean fluorescence values detected (RFU) at times of 10 seconds, +5 minutes, +10 minutes, and +30 minutes are reported.” left out

Question: With `Cc1cc(=O)oc2c(F)c(O[C@H]3O[C@H](CO)[C@@H](O)[C@H](O)[C@H]3O)c(F)cc12` [Comparative Example A, 6′,8′-Difluoro-4′-methylumbelliferyl α-D-glucopyranoside] as the molecule, how does the “MEASURED FLUORESCENCE, RFU 10 sec” value (pH 6 LB broth) read?
Answer: Its value is 10,605 RFU.

Question: And the “MEASURED FLUORESCENCE, RFU +5 min” value (pH 6 LB broth)?
Answer: Its value is 10,851 RFU.

Question: And the “MEASURED FLUORESCENCE, RFU +10 min” value (pH 6 LB broth)?
Answer: Its value is 10,748 RFU.

Question: What about the “MEASURED FLUORESCENCE, RFU +30 min” value (pH 6 LB broth) of the same molecule?
Answer: The value was 10,663 RFU.

Question: What about the “MEASURED FLUORESCENCE, RFU 10 sec” value (pH 7 LB broth) of the same molecule?
Answer: The value was 12986 RFU.

Question: What about the “MEASURED FLUORESCENCE, RFU +5 min” value (pH 7 LB broth) of the same molecule?
Answer: The value was 13409 RFU.

Question: What about the “MEASURED FLUORESCENCE, RFU +10 min” value (pH 7 LB broth) of the same molecule?
Answer: The value was 13403 RFU.

Question: What about the “MEASURED FLUORESCENCE, RFU +30 min” value (pH 7 LB broth) of the same molecule?
Answer: Its value is 13283 RFU.

Question: What about the “MEASURED FLUORESCENCE, RFU 10 sec” value (pH 8 LB broth) of the same molecule?
Answer: Its value is 14015 RFU.

Question: And the “MEASURED FLUORESCENCE, RFU +5 min” value (pH 8 LB broth)?
Answer: Its value is 14483 RFU.

Question: What about the “MEASURED FLUORESCENCE, RFU +10 min” value (pH 8 LB broth) of the same molecule?
Answer: Its value is 14494 RFU.

Question: And the “MEASURED FLUORESCENCE, RFU +30 min” value (pH 8 LB broth)?
Answer: The value was 14331 RFU.

Question: And the “MEASURED FLUORESCENCE, RFU 10 sec” value (pH 9 LB broth)?
Answer: The value was 18584 RFU.

Question: What about the “MEASURED FLUORESCENCE, RFU +5 min” value (pH 9 LB broth) of the same molecule?
Answer: Its value is 19052 RFU.

Question: What about the “MEASURED FLUORESCENCE, RFU +10 min” value (pH 9 LB broth) of the same molecule?
Answer: The value was 18990 RFU.

Question: And the “MEASURED FLUORESCENCE, RFU +30 min” value (pH 9 LB broth)?
Answer: Its value is 18683 RFU.

Question: Which “MEASURED FLUORESCENCE, RFU 10 sec” value (pH 6 LB broth) does the source give for `Cc1cc(=O)oc2cc(O[C@H]3O[C@H](CO)[C@@H](O)[C@H](O)[C@H]3O)c(F)cc12` [Example 1, 6′-Fluoro-4′-methylumbelliferyl α-D-glucopyranoside] here?
Answer: The value was 1108 RFU.

Question: And the “MEASURED FLUORESCENCE, RFU +5 min” value (pH 6 LB broth)?
Answer: The value was 1096 RFU.

Question: And the “MEASURED FLUORESCENCE, RFU +10 min” value (pH 6 LB broth)?
Answer: Its value is 1040 RFU.

Question: And the “MEASURED FLUORESCENCE, RFU +30 min” value (pH 6 LB broth)?
Answer: The value was 948 RFU.

Question: And the “MEASURED FLUORESCENCE, RFU 10 sec” value (pH 7 LB broth)?
Answer: Its value is 1209 RFU.

Question: What about the “MEASURED FLUORESCENCE, RFU +5 min” value (pH 7 LB broth) of the same molecule?
Answer: The value was 1183 RFU.

Question: What about the “MEASURED FLUORESCENCE, RFU +10 min” value (pH 7 LB broth) of the same molecule?
Answer: The value was 1130 RFU.

Question: And the “MEASURED FLUORESCENCE, RFU +30 min” value (pH 7 LB broth)?
Answer: Its value is 1037 RFU.

Question: What about the “MEASURED FLUORESCENCE, RFU 10 sec” value (pH 8 LB broth) of the same molecule?
Answer: The value was 1145 RFU.

Question: And the “MEASURED FLUORESCENCE, RFU +5 min” value (pH 8 LB broth)?
Answer: The value was 1130 RFU.

Question: What about the “MEASURED FLUORESCENCE, RFU +10 min” value (pH 8 LB broth) of the same molecule?
Answer: Its value is 1092 RFU.

Question: And the “MEASURED FLUORESCENCE, RFU +30 min” value (pH 8 LB broth)?
Answer: The value was 1026 RFU.

Question: And the “MEASURED FLUORESCENCE, RFU 10 sec” value (pH 9 LB broth)?
Answer: The value was 1449 RFU.

Question: What about the “MEASURED FLUORESCENCE, RFU +5 min” value (pH 9 LB broth) of the same molecule?
Answer: The value was 1437 RFU.

Question: What about the “MEASURED FLUORESCENCE, RFU +10 min” value (pH 9 LB broth) of the same molecule?
Answer: Its value is 1388 RFU.

Question: What about the “MEASURED FLUORESCENCE, RFU +30 min” value (pH 9 LB broth) of the same molecule?
Answer: The value was 1330 RFU.

Question: With `Cc1cc(=O)oc2cc(O[C@H]3O[C@H](CO)[C@@H](O)[C@H](O)[C@H]3O)cc(F)c12` [Example 2, 5′-Fluoro-4′-methylumbelliferyl α-D-glucopyranoside] as the molecule, how does the “MEASURED FLUORESCENCE, RFU 10 sec” value (pH 6 LB broth) read?
Answer: The value was 933 RFU.

Question: And the “MEASURED FLUORESCENCE, RFU +5 min” value (pH 6 LB broth)?
Answer: Its value is 852 RFU.

Question: And the “MEASURED FLUORESCENCE, RFU +10 min” value (pH 6 LB broth)?
Answer: The value was 805 RFU.

Question: What about the “MEASURED FLUORESCENCE, RFU +30 min” value (pH 6 LB broth) of the same molecule?
Answer: Its value is 758 RFU.

Question: What about the “MEASURED FLUORESCENCE, RFU 10 sec” value (pH 7 LB broth) of the same molecule?
Answer: Its value is 831 RFU.

Question: And the “MEASURED FLUORESCENCE, RFU +5 min” value (pH 7 LB broth)?
Answer: Its value is 777 RFU.

Question: What about the “MEASURED FLUORESCENCE, RFU +10 min” value (pH 7 LB broth) of the same molecule?
Answer: The value was 733 RFU.

Question: And the “MEASURED FLUORESCENCE, RFU +30 min” value (pH 7 LB broth)?
Answer: The value was 673 RFU.

Question: And the “MEASURED FLUORESCENCE, RFU 10 sec” value (pH 8 LB broth)?
Answer: Its value is 748 RFU.

Question: And the “MEASURED FLUORESCENCE, RFU +5 min” value (pH 8 LB broth)?
Answer: The value was 705 RFU.

Question: And the “MEASURED FLUORESCENCE, RFU +10 min” value (pH 8 LB broth)?
Answer: The value was 658 RFU.

Question: And the “MEASURED FLUORESCENCE, RFU +30 min” value (pH 8 LB broth)?
Answer: The value was 579 RFU.

Question: And the “MEASURED FLUORESCENCE, RFU 10 sec” value (pH 9 LB broth)?
Answer: Its value is 675 RFU.

Question: And the “MEASURED FLUORESCENCE, RFU +5 min” value (pH 9 LB broth)?
Answer: Its value is 625 RFU.

Question: And the “MEASURED FLUORESCENCE, RFU +10 min” value (pH 9 LB broth)?
Answer: The value was 584 RFU.

Question: And the “MEASURED FLUORESCENCE, RFU +30 min” value (pH 9 LB broth)?
Answer: The value was 530 RFU.

Question: Which results are given for `Cc1cc(=O)oc2cc(O[C@H]3O[C@H](CO)[C@@H](O)[C@H](O)[C@H]3O)ccc12` [MUG, 4′-methylumbelliferyl-α-D-glucopyranoside]?
Answer: MEASURED FLUORESCENCE, RFU 10 sec (pH 6 LB broth): 967 RFU; MEASURED FLUORESCENCE, RFU +5 min (pH 6 LB broth): 909 RFU; MEASURED FLUORESCENCE, RFU +10 min (pH 6 LB broth): 852 RFU; MEASURED FLUORESCENCE, RFU +30 min (pH 6 LB broth): 782 RFU; MEASURED FLUORESCENCE, RFU 10 sec (pH 7 LB broth): 823 RFU; MEASURED FLUORESCENCE, RFU +5 min (pH 7 LB broth): 790 RFU; MEASURED FLUORESCENCE, RFU +10 min (pH 7 LB broth): 745 RFU; MEASURED FLUORESCENCE, RFU +30 min (pH 7 LB broth): 670 RFU; MEASURED FLUORESCENCE, RFU 10 sec (pH 8 LB broth): 714 RFU; MEASURED FLUORESCENCE, RFU +5 min (pH 8 LB broth): 685 RFU; MEASURED FLUORESCENCE, RFU +10 min (pH 8 LB broth): 643 RFU; MEASURED FLUORESCENCE, RFU +30 min (pH 8 LB broth): 567 RFU; MEASURED FLUORESCENCE, RFU 10 sec (pH 9 LB broth): 654 RFU; MEASURED FLUORESCENCE, RFU +5 min (pH 9 LB broth): 622 RFU; MEASURED FLUORESCENCE, RFU +10 min (pH 9 LB broth): 575 RFU; MEASURED FLUORESCENCE, RFU +30 min (pH 9 LB broth): 500 RFU
